Reference: patent publication EP0032432A1, “Prostanoid compounds and their preparation and pharmaceutical formulations” (GLAXO GROUP LIMITED, priority 1980, dated 1981)

These compounds were tested on guinea-pig lung (assay: Potential bronchodilatation (method of Lulich et al., guinea-pig lung instead of cat lung; pA2 by Arunlakshana and Schild)). Details: Cavia porcellus, tested at concentrations between 2 x 10^-7 to 2x10^-5 mole/litre.
Format: cell-based
With `COc1ccc(-c2ccc(COC3CC(=O)C(N4CCCCC4)C3CC=CCCCC(=O)O)cc2)cc1` (racemic) [11e), [1α(Z),2β,5α]-(±)-7-[5-[[4'-Methoxy(1,1'biphenyl)-4-yl]methoxy]-3-oxo-2-(1-piperidinyl)cyclopentyl]-5-heptenoic acid] the Kb was 1.58 nM.
With `COc1ccc(-c2csc(COC3CC(O)C(N4CCOCC4)C3CC=CCCCC(=O)O)c2)cc1` (racemic) [Example 10b), [1α(Z),2β,3α,5α]-(±)-7-[3-Hydroxy-5-[[4-(4-methoxyphenyl)thien-2-yl]methoxy]-2-(4-morpholinyl)cyclopentyl]-5-heptenoic acid] the Kb was 1 nM.
`Cc1ccc(-c2ccc(COC3CC(=O)C(N4CCCCC4)C3CC=CCCCC(=O)O)cc2)cc1` (racemic) [11g), [1α(Z),2β,5α]-(±)-7-[5-[[4'-Methyl(1,1'-biphenyl)-4-yl]ntethoxy]-3-oxo-2-(1-piperidinyl)cyclopentyl]-5-heptenoic acid] gave a Kb of 3.16 nM.
`O=C(O)CCCC=CCC1C(OCc2ccc(Cc3ccccc3)cc2)CC(=O)C1N1CCS(=O)(=O)CC1` (racemic) [11i), [1α(Z),2β,5α]-(±)-7-[3-Oxo-5-[4-(phenylmethyl)-phenylmethoxy]-2-(4-thiomorpholinyl)cyclopentyl]-5-heptenoic acid, S-dioxide] showed a Kb of 3.16 nM.

Same assay, conditions: tested at concentrations between 2 x 10^-7 to 2x10^-5 mole/litre
Compound `Cc1ccc(-c2ccc(COC3CC(=O)C(N4CCOCC4)C3CCCCCCC(=O)O)cc2)cc1` (racemic) [18a), (1α,2β,5α)-(±)-5-[[4'-Methyl(1,1'-biphenyl)-4-yl]methoxy]-2-(4-morpholinyl)-3-oxocyclopentaneheptanoic acid] has a pA2 of 8.6.
`COc1ccc(-c2ccc(COC3CC(=O)C(N4CCOCC4)C3CCCCCCC(=O)O)cc2)cc1` (racemic) [18d), (1α,2β,5α)-(±)-5-[[-4'-Methoxy(1,1'-biphenyl)-4-yl]-2-(4-morpholinyl)-3-oxocyclopentaneheptanoic acid] gave a pA2 of 8.9.

What follows are compounds tested on human whole blood (assay: Inhibition of platelet aggregation (method of Born, collagen instead of ADP as pro-aggregatory agent; pA2 by Arunlakshana and Schild)). Details: tested at a concentration of 2 pg/ml.
Format: cell-based
From the text: As indicated above, our tests have shown that compounds of formula (1) inhibit blood platelet aggregation and/or have bronchodilatatory activity. The test we have used for bronchodilatation is as described by K.M. Lulich, et al in British Journal of Pharmacology 58, 71-79, (1976) except guinea-pig lung is used instead of cat lung. The test for inhibition of platelet aggregation is as described by G.V. Born in Nature 194, 927-929 (1962) except collagen is used instead of ADP as the pro-aggregatory agent.
The following compounds were tested at a concentration of 2 pg/ml for their ability to inhibit the aggregation of human whole blood according to the method of G V Born in Nature 194, 927-929 (1962) except collagen was used instead of ADP as the pro-aggregatory agent. pA2 values were determined using the standard procedures of Arunlakshana and Schild in Br J Pharmac Chemother, 14, 48-58 (1959): […]
With `Cc1ccc(-c2ccc(COC3CC(=O)C(N4CCOCC4)C3CC=CCCCC(=O)O)cc2)cc1` (racemic) [Example 5a), [1α(Z),2β,5α-(±)-7-[5-[[4'-Methyl(1,1'-biphenyl)-4-yl]methoxy]-2-(4-morpholinyl)-3-oxocyclopentyl]-5-heptenoic acid] the Kb was 15.8 nM.
`O=C(O)CCCC=CCC1C(OCc2ccc(-c3cccs3)cc2)CC(=O)C1N1CCOCC1` (racemic) [5f), [1α(Z),2β,5α]-(±)-7-[2-(4-Morpholinyl)-3-oxo-5-[4-(thien-2-yl)phenylmethoxy]cyclopentyl]-5-heptenoic acid] showed a Kb of 44.7 nM.
`O=C(O)CCCC=CCC1C(OCc2ccc(Cc3ccccc3)cc2)CC(=O)C1N1CCOCC1` (racemic) [11b), 1α(Z),2β,5α]-(±)-7-[2-(4-Morpholinyl)-3-oxo-5-[[4-(phenylmethyl)phenyl]methoxy]cyclopentyl]-5-heptenoic acid] gave a Kb of 39.8 nM.
For `COc1ccc(-c2ccc(COC3CC(=O)C(N4CCOCC4)C3CC=CCCCC(=O)O)cc2)cc1` (racemic) [11a), [1α(Z),2β,5α]-(±)-7-[5-[[4'-Methoxy(1,1'-biphenyl)-4-yl]methoxy]-2-(4-morpholinyl)-3-oxocyclopentyl]-5-heptenoic acid], the Kb was 15.8 nM.

These compounds were tested on dogs (assay: Toxicity, oral administration to dogs). Details: given orally to dogs at a dose of 1 mg/kg.
Format: in vivo
From the text: The compounds are in general non-toxic at therapeutically useful doses.
For `O=C(O)CCCC=CCC1C(OCc2ccc(Cc3ccccc3)cc2)CC(=O)C1N1CCCCC1` (racemic) [Example 11f), [1α(Z),2β,5α]-(±)-7-[3-Oxo-5-[4-(phenylmethyl)phenylmethoxy]-2-(1-piperidinyl)cyclopentyl]-5-heptenoic acid], the adverse effects was “no adverse effects”.
With `O=C(O)CCCC=CCC1C(OCc2ccc(-c3ccc(-c4ccccc4)cc3)cc2)CC(=O)C1N1CCOCC1` (racemic) [Example 11c), [1α(Z),2β,5α]-(±)-7-[2-(4-Morpholinyl)-3-oxo-5-[[(1,1';4.1"-terphenyl)-4-yl]methoxy]cyclopentyl]-5-heptenoic acid] the adverse effects was “no adverse effects”.
`COc1ccc(-c2ccc(COC3CC(=O)C(N4CCOCC4)C3CC=CCCCC(=O)O)cc2)cc1` (racemic) [11a), [1α(Z),2β,5α]-(±)-7-[5-[[4'-Methoxy(1,1'-biphenyl)-4-yl]methoxy]-2-(4-morpholinyl)-3-oxocyclopentyl]-5-heptenoic acid] was tested, and the adverse effects was “no adverse effects”.
